The source of these data is PubChem BioAssay AID1259407 (Chemical Carcinogenesis Research Information System (CCRIS), 2018).

Activity calls are given as the source filed them. No rule for the calls is given here.

For this series, the system named is CCRIS mutagenicity, Ames/micronucleus/aberration tests. Description: CCRIS mutagenicity studies.
[1] abbreviates: Test System: AMES SALMONELLA TYPHIMURIUM, Strain/Indicator: TA98, Metabolic Activation: NONE, Method: STANDARD PLATE.
The mark [2] stands for this setting: Test System: AMES SALMONELLA TYPHIMURIUM, Strain/Indicator: TA98, Metabolic Activation: RAT, LIVER, S-9, AROCLOR 1254, Method: STANDARD PLATE.
The mark [3] stands for this setting: Test System: AMES SALMONELLA TYPHIMURIUM, Strain/Indicator: TA100, Metabolic Activation: NONE, Method: STANDARD PLATE.
The mark [4] stands for this setting: Test System: AMES SALMONELLA TYPHIMURIUM, Strain/Indicator: TA100, Metabolic Activation: RAT, LIVER, S-9, AROCLOR 1254, Method: STANDARD PLATE.
Where [5] appears, read: Test System: AMES SALMONELLA TYPHIMURIUM, Strain/Indicator: TA98, Metabolic Activation: NONE, Method: PREINCUBATION
The mark [6] stands for this setting: Test System: AMES SALMONELLA TYPHIMURIUM, Strain/Indicator: TA100, Metabolic Activation: NONE, Method: PREINCUBATION
Setting [7] is: Test System: AMES SALMONELLA TYPHIMURIUM, Strain/Indicator: TA1535, Metabolic Activation: NONE, Method: PREINCUBATION
[8] abbreviates: Test System: AMES SALMONELLA TYPHIMURIUM, Strain/Indicator: TA1537, Metabolic Activation: NONE, Method: PREINCUBATION

Consider `O=[N+]([O-])c1cc(C(F)(F)F)cc([N+](=O)[O-])c1O`, for which the mutagenic call by setting is: under setting [1], “inactive; negative”; under setting [2], “inactive; negative”; under setting [3], “inactive; negative”; under setting [4], “inactive; negative”; (Test System: AMES SALMONELLA TYPHIMURIUM, Strain/Indicator: TA1535, Metabolic Activation: NONE, Method: STANDARD PLATE) “inactive; negative”; (Test System: AMES SALMONELLA TYPHIMURIUM, Strain/Indicator: TA1535, Metabolic Activation: RAT, LIVER, S-9, AROCLOR 1254, Method: STANDARD PLATE) “inactive; negative”. The mutagenic call was “inactive; negative” (Test System: AMES SALMONELLA TYPHIMURIUM, Strain/Indicator: TA1537, Metabolic Activation: NONE, Method: STANDARD PLATE); “inactive; negative” (Test System: AMES SALMONELLA TYPHIMURIUM, Strain/Indicator: TA1537, Metabolic Activation: RAT, LIVER, S-9, AROCLOR 1254, Method: STANDARD PLATE); “inactive; negative” (Test System: AMES SALMONELLA TYPHIMURIUM, Strain/Indicator: TA1538, Metabolic Activation: NONE, Method: STANDARD PLATE); “inactive; negative” (Test System: AMES SALMONELLA TYPHIMURIUM, Strain/Indicator: TA1538, Metabolic Activation: RAT, LIVER, S-9, AROCLOR 1254, Method: STANDARD PLATE).

Regarding `CCCCCCCCO`, the mutagenic call under setting [5] is “inactive; negative”; the mutagenic call (Test System: AMES SALMONELLA TYPHIMURIUM, Strain/Indicator: TA98, Metabolic Activation: RAT, LIVER, S-9, PHENOBARBITAL AND BETA-NAPHTHOFLAVONE, Method: PREINCUBATION) was “inactive; negative”; the mutagenic call under setting [6] was “inactive; negative”; the mutagenic call (Test System: AMES SALMONELLA TYPHIMURIUM, Strain/Indicator: TA100, Metabolic Activation: RAT, LIVER, S-9, PHENOBARBITAL AND BETA-NAPHTHOFLAVONE, Method: PREINCUBATION) is “inactive; negative”; the mutagenic call (Test System: AMES SALMONELLA TYPHIMURIUM, Strain/Indicator: TA100, Metabolic Activation: RAT, LIVER, S-9, SODIUM PHENOBARBITAL AND 5,6-BENZOFLAVONE, Method: PREINCUBATION) was “inactive; negative”; the mutagenic call (Test System: AMES SALMONELLA TYPHIMURIUM, Strain/Indicator: TA102, Metabolic Activation: NONE, Method: PREINCUBATION) is “inactive; negative”. In addition, the mutagenic call is, setting by setting: (Test System: AMES SALMONELLA TYPHIMURIUM, Strain/Indicator: TA102, Metabolic Activation: RAT, LIVER, S-9, PHENOBARBITAL AND BETA-NAPHTHOFLAVONE, Method: PREINCUBATION) “inactive; negative”; (Test System: AMES SALMONELLA TYPHIMURIUM, Strain/Indicator: TA102, Metabolic Activation: RAT, LIVER, S-9, SODIUM PHENOBARBITAL AND 5,6-BENZOFLAVONE, Method: PREINCUBATION) “inactive; negative”; (Test System: AMES SALMONELLA TYPHIMURIUM, Strain/Indicator: TA104, Metabolic Activation: NONE, Method: PREINCUBATION) “inactive; negative”; (Test System: AMES SALMONELLA TYPHIMURIUM, Strain/Indicator: TA104, Metabolic Activation: RAT, LIVER, S-9, PHENOBARBITAL AND BETA-NAPHTHOFLAVONE, Method: PREINCUBATION) “inactive; negative”; (Test System: AMES SALMONELLA TYPHIMURIUM, Strain/Indicator: TA104, Metabolic Activation: RAT, LIVER, S-9, SODIUM PHENOBARBITAL AND 5,6-BENZOFLAVONE, Method: PREINCUBATION) “inactive; negative”; under setting [7], “inactive; negative”. The mutagenic call was “inactive; negative” (Test System: AMES SALMONELLA TYPHIMURIUM, Strain/Indicator: TA1535, Metabolic Activation: RAT, LIVER, S-9, PHENOBARBITAL AND BETA-NAPHTHOFLAVONE, Method: PREINCUBATION); “inactive; negative” under setting [8]; “inactive; negative” (Test System: AMES SALMONELLA TYPHIMURIUM, Strain/Indicator: TA1537, Metabolic Activation: RAT, LIVER, S-9, PHENOBARBITAL AND BETA-NAPHTHOFLAVONE, Method: PREINCUBATION); “inactive; negative” (Test System: E. COLI, Strain/Indicator: WP2UVRA/PKM101, Metabolic Activation: NONE, Method: PREINCUBATION); “inactive; negative” (Test System: E. COLI, Strain/Indicator: WP2UVRA/PKM101, Metabolic Activation: RAT, LIVER, S-9, PHENOBARBITAL AND BETA-NAPHTHOFLAVONE, Method: PREINCUBATION); “inactive; negative” (Test System: E. COLI, Strain/Indicator: WP2UVRA/PKM101, Metabolic Activation: RAT, LIVER, S-9, SODIUM PHENOBARBITAL AND 5,6-BENZOFLAVONE, Method: PREINCUBATION). Further, the mutagenic call was “inactive; negative” (Test System: E. COLI, Strain/Indicator: WP2UVRA, Metabolic Activation: NONE, Method: PREINCUBATION) and “inactive; negative” (Test System: E. COLI, Strain/Indicator: WP2UVRA, Metabolic Activation: RAT, LIVER, S-9, PHENOBARBITAL AND BETA-NAPHTHOFLAVONE, Method: PREINCUBATION).

In the case of `CN1CCC[C@H]1c1cccnc1`, the mutagenic call is “active; positive” (End Point: IN VITRO MICRONUCLEUS, Test System: HUMAN GINGIVAL FIBROBLASTS, Metabolic Activation: NONE); “inactive; negative” (End Point: In vivo micronucleus, Test System: Bone marrow polychromatic erythrocytes, Species: Mouse, Strain/Sex: Swiss/Female, Route: Oral); “inactive; negative” (Test System: AMES SALMONELLA TYPHIMURIUM, Strain/Indicator: TA97, Metabolic Activation: NONE, Method: STANDARD PLATE); “inactive; negative” (Test System: AMES SALMONELLA TYPHIMURIUM, Strain/Indicator: TA97, Metabolic Activation: RAT, LIVER, S-9, AROCLOR 1254, Method: STANDARD PLATE); “inactive; negative” under setting [5]; “inactive; negative” under setting [1]. For the same molecule, the mutagenic call reads like this: (Test System: AMES SALMONELLA TYPHIMURIUM, Strain/Indicator: TA98, Metabolic Activation: RAT, LIVER, S-9, AROCLOR 1254 (5%), Method: PREINCUBATION) “inactive; negative”; under setting [2], “inactive; negative”; under setting [6], “inactive; negative”; under setting [3], “inactive; negative”; (Test System: AMES SALMONELLA TYPHIMURIUM, Strain/Indicator: TA100, Metabolic Activation: RAT, LIVER, S-9, AROCLOR 1254 (5%), Method: PREINCUBATION) “inactive; negative”; under setting [4], “inactive; negative”. In addition, the mutagenic call under setting [7] was “inactive; negative”; the mutagenic call (Test System: AMES SALMONELLA TYPHIMURIUM, Strain/Indicator: TA1535, Metabolic Activation: RAT, LIVER, S-9, AROCLOR 1254 (5%), Method: PREINCUBATION) is “inactive; negative”; the mutagenic call under setting [8] is “inactive; negative”; the mutagenic call (Test System: AMES SALMONELLA TYPHIMURIUM, Strain/Indicator: TA1537, Metabolic Activation: RAT, LIVER, S-9, AROCLOR 1254 (5%), Method: PREINCUBATION) is “inactive; negative”; the mutagenic call (Test System: AMES SALMONELLA TYPHIMURIUM, Strain/Indicator: TA1538, Metabolic Activation: NONE, Method: PREINCUBATION) is “inactive; negative”; the mutagenic call (Test System: AMES SALMONELLA TYPHIMURIUM, Strain/Indicator: TA1538, Metabolic Activation: RAT, LIVER, S-9, AROCLOR 1254 (5%), Method: PREINCUBATION) was “inactive; negative”.
